Test results from EP0377642B1, “HERBICIDES FOR WEED CONTROL IN RICE” (E.I. DU PONT DE NEMOURS AND COMPANY, priority 1987, dated 1989).

How the values were obtained:
Format in all cases: in vivo
PS = experiment: Herbicidal efficacy in relation to application timing in Indonesia (Table 5)
Text: (§1) Methyl 2-[[[[(4-methoxy-6-methyl-1,3,5-triazin-2-yl)amino]carbonyl]amino]sulfonyl]benzoate (Compound 1) and mixtures thereof with other compounds were applied as a spray (using a hand sprayer) to rice (either transplanted or direct seeded) in several rice growing areas in Southeast Asia and in the U.S. Tables 1-28 contain the results of these tests and clearly exemplify the utility of this invention. The details of each application are included in the appropriate table. [drawing 2]

rice [1] = experiment: as above
Text: as §1

rice [2] = experiment: Greenhouse test of Compound 1 and Compound 2, crop tolerance (Table 26); details: treated 12 days after transplanting, rated 24 days after treatment; for % CONTROL OR INJURY LEMONT: indica rice variety Lemont; for % CONTROL OR INJURY M101: japonica rice variety M101
Text: as §1

SMILES: COC(=O)c1ccccc1S(=O)(=O)NC(=O)Nc1nc(C)nc(OC)n1 [Compound 1, Methyl 2-[[[[(4-methoxy-6-methyl-1,3,5-triazin-2-yl)amino]carbonyl]amino]sulfonyl]benzoate]
- % CONTROL PS (PS; 4 WAT, 6 GAI/HA, evaluation 3): 0%
- % CONTROL PS (PS; 4 WAT, 8 GAI/HA, evaluation 1): 0%
- % CONTROL PS (PS; 4 WAT, 8 GAI/HA, evaluation 2): 0%
- % CONTROL PS (PS; 4 WAT, 8 GAI/HA, evaluation 3): 0%
- % CONTROL PS (PS; 5 WAT, 2 GAI/HA, evaluation 1): 0%
- % CONTROL PS (PS; 5 WAT, 2 GAI/HA, evaluation 2): 0%
- % CONTROL PS (PS; 5 WAT, 2 GAI/HA, evaluation 3): 0%
- % CONTROL PS (PS; 5 WAT, 3 GAI/HA, evaluation 1): 0%
- % CONTROL PS (PS; 5 WAT, 3 GAI/HA, evaluation 2): 0%
- % CONTROL PS (PS; 5 WAT, 3 GAI/HA, evaluation 3): 0%
- % CONTROL PS (PS; 5 WAT, 4 GAI/HA, evaluation 1): 0%
- % CONTROL PS (PS; 5 WAT, 4 GAI/HA, evaluation 2): 0%
- % CONTROL PS (PS; 5 WAT, 4 GAI/HA, evaluation 3): 0%
- % CONTROL PS (PS; 5 WAT, 6 GAI/HA, evaluation 1): 0%
- % CONTROL PS (PS; 5 WAT, 6 GAI/HA, evaluation 2): 0%
- % CONTROL PS (PS; 5 WAT, 6 GAI/HA, evaluation 3): 0%
- % CONTROL PS (PS; 5 WAT, 8 GAI/HA, evaluation 1): 0%
- % CONTROL PS (PS; 5 WAT, 8 GAI/HA, evaluation 2): 0%
- % CONTROL PS (PS; 5 WAT, 8 GAI/HA, evaluation 3): 0%
- % CONTROL RICE (rice [1]; 3 WAT, 2 GAI/HA, evaluation 1): 0%
- % CONTROL RICE (rice [1]; 3 WAT, 2 GAI/HA, evaluation 2): 0%
- % CONTROL RICE (rice [1]; 3 WAT, 2 GAI/HA, evaluation 3): 0%
- % CONTROL RICE (rice [1]; 3 WAT, 3 GAI/HA, evaluation 1): 0%
- % CONTROL RICE (rice [1]; 3 WAT, 3 GAI/HA, evaluation 2): 0%
- % CONTROL RICE (rice [1]; 3 WAT, 3 GAI/HA, evaluation 3): 0%
- % CONTROL RICE (rice [1]; 3 WAT, 4 GAI/HA, evaluation 1): 0%
- % CONTROL RICE (rice [1]; 3 WAT, 4 GAI/HA, evaluation 2): 0%
- % CONTROL RICE (rice [1]; 3 WAT, 4 GAI/HA, evaluation 3): 0%
- % CONTROL RICE (rice [1]; 3 WAT, 6 GAI/HA, evaluation 1): 0%
- % CONTROL RICE (rice [1]; 3 WAT, 6 GAI/HA, evaluation 2): 0%
- % CONTROL RICE (rice [1]; 3 WAT, 6 GAI/HA, evaluation 3): 0%
- % CONTROL RICE (rice [1]; 3 WAT, 8 GAI/HA, evaluation 1): 0%
- % CONTROL RICE (rice [1]; 3 WAT, 8 GAI/HA, evaluation 2): 0%
- % CONTROL RICE (rice [1]; 3 WAT, 8 GAI/HA, evaluation 3): 0%
- % CONTROL RICE (rice [1]; 4 WAT, 2 GAI/HA, evaluation 1): 0%
- % CONTROL RICE (rice [1]; 4 WAT, 2 GAI/HA, evaluation 2): 0%
- % CONTROL RICE (rice [1]; 4 WAT, 2 GAI/HA, evaluation 3): 0%
- % CONTROL RICE (rice [1]; 4 WAT, 3 GAI/HA, evaluation 1): 0%
- % CONTROL RICE (rice [1]; 4 WAT, 3 GAI/HA, evaluation 2): 10%
- % CONTROL RICE (rice [1]; 4 WAT, 3 GAI/HA, evaluation 3): 0%
- % CONTROL RICE (rice [1]; 4 WAT, 4 GAI/HA, evaluation 1): 20%
- % CONTROL RICE (rice [1]; 4 WAT, 4 GAI/HA, evaluation 2): 20%
- % CONTROL RICE (rice [1]; 4 WAT, 4 GAI/HA, evaluation 3): 0%
- % CONTROL RICE (rice [1]; 4 WAT, 6 GAI/HA, evaluation 1): 20%
- % CONTROL RICE (rice [1]; 4 WAT, 6 GAI/HA, evaluation 2): 20%
- % CONTROL RICE (rice [1]; 4 WAT, 6 GAI/HA, evaluation 3): 0%
- % CONTROL RICE (rice [1]; 4 WAT, 8 GAI/HA, evaluation 1): 20%
- % CONTROL RICE (rice [1]; 4 WAT, 8 GAI/HA, evaluation 2): 20%
- % CONTROL RICE (rice [1]; 4 WAT, 8 GAI/HA, evaluation 3): 0%
- % CONTROL RICE (rice [1]; 5 WAT, 2 GAI/HA, evaluation 1): 10%
- % CONTROL RICE (rice [1]; 5 WAT, 2 GAI/HA, evaluation 2): 0%
- % CONTROL RICE (rice [1]; 5 WAT, 2 GAI/HA, evaluation 3): 0%
- % CONTROL RICE (rice [1]; 5 WAT, 3 GAI/HA, evaluation 1): 10%
- % CONTROL RICE (rice [1]; 5 WAT, 3 GAI/HA, evaluation 2): 0%
- % CONTROL RICE (rice [1]; 5 WAT, 3 GAI/HA, evaluation 3): 0%
- % CONTROL RICE (rice [1]; 5 WAT, 4 GAI/HA, evaluation 1): 30%
- % CONTROL RICE (rice [1]; 5 WAT, 4 GAI/HA, evaluation 2): 0%
- % CONTROL RICE (rice [1]; 5 WAT, 4 GAI/HA, evaluation 3): 0%
- % CONTROL RICE (rice [1]; 5 WAT, 6 GAI/HA, evaluation 1): 0%
- % CONTROL RICE (rice [1]; 5 WAT, 6 GAI/HA, evaluation 2): 0%
- % CONTROL RICE (rice [1]; 5 WAT, 6 GAI/HA, evaluation 3): 0%
- % CONTROL RICE (rice [1]; 5 WAT, 8 GAI/HA, evaluation 1): 30%
- % CONTROL RICE (rice [1]; 5 WAT, 8 GAI/HA, evaluation 2): 10%
- % CONTROL RICE (rice [1]; 5 WAT, 8 GAI/HA, evaluation 3): 0%
- % CONTROL OR INJURY LEMONT (rice [2]; rate 1 g ai/ha): 10%
- % CONTROL OR INJURY LEMONT (rice [2]; rate 2 g ai/ha): 20%
- % CONTROL OR INJURY LEMONT (rice [2]; rate 4 g ai/ha): 40%
- % CONTROL OR INJURY LEMONT (rice [2]; rate 8 g ai/ha): 50%
- % CONTROL OR INJURY M101 (rice [2]; rate 1 g ai/ha): 0%
- % CONTROL OR INJURY M101 (rice [2]; rate 2 g ai/ha): 10%
- % CONTROL OR INJURY M101 (rice [2]; rate 4 g ai/ha): 10%
- % CONTROL OR INJURY M101 (rice [2]; rate 8 g ai/ha): 35%
